Measurements: paper PMC4303146, “Investigation of cyanine dyes for in vivo optical imaging of altered mitochondrial membrane potential in tumors” (Cancer Medicine, 2014)

How the values were obtained:
HeLa cell xenograft = experiment: In vivo imaging study in HeLa cell xenograft mice; conditions: for Tumor fluorescence intensity group from ROI analysis / Liver accumulation and excretion: 10 nmol i.v.; for Liver accumulation and excretion: ventral imaging 3-72 h
Procedure: Animal experiments were conducted in accordance with institutional guidelines and were approved by the Kyoto University Animal Care Committee. […] HeLa cells (2 × 10^6 cells in 100 μL of PBS) were subcutaneously inoculated into the right hind legs of mice. Fourteen days after implantation, mice were used for the imaging study.
Clairvivo® OPT measurement and display software ver. 2.6.0.0. (SHIMADZU Co.) was used for imaging analysis.
Exposure time was 5s for the scan at 3 h, and 3s for the other scans. Clairvivo® OPT measurement and display software ver. 2.6.0.0. (SHIMADZU Co., Kyoto, Japan) was used for imaging analysis.

HeLa cells [1] = experiment: Cellular localization study (fluorescence microscopy with NAO mitochondria marker); assay type: cell-based, human; conditions: 1 μmol/L, 60 min, NAO 100 nmol/L
Procedure: HeLa cells (3 × 10^5 cells) were cultured in a poly-L-lysine coated glass bottom dish for 24 h at 37°C before use. Cells were washed twice with phosphate-buffered saline (PBS) and then incubated with the IC7-1 derivative dissolved in dimethyl sulfoxide (DMSO) (1 μmol/L final concentration) in DMEM supplemented with 5% FBS and 1% penicillin and streptomycin for 60 min. To determine the dye localization, mitochondria were labeled with NAO (100 nmol/L final concentration) for 20 min before completion of the incubation with IC7-1 derivative. Next, the cells were washed twice each with DMEM and PBS. Cells were viewed with a fluorescence microscope under a 100× oil-immersion objective lens. MetaMorph® software (Molecular Devices, LLC, Sunnyvale, CA) was used for imaging analysis.

BSA = BSA (Bos taurus, UniProt P02769); experiment: Association constants of IC7-1 derivatives to albumin (fluorimetric titration); assay type: binding, bovine; conditions: dye 1 µM, BSA 0-1.0 µM, 30 min; read-out: Ka, association constant of dye-albumin complex (converted)
Sequence of BSA (P02769 25-607): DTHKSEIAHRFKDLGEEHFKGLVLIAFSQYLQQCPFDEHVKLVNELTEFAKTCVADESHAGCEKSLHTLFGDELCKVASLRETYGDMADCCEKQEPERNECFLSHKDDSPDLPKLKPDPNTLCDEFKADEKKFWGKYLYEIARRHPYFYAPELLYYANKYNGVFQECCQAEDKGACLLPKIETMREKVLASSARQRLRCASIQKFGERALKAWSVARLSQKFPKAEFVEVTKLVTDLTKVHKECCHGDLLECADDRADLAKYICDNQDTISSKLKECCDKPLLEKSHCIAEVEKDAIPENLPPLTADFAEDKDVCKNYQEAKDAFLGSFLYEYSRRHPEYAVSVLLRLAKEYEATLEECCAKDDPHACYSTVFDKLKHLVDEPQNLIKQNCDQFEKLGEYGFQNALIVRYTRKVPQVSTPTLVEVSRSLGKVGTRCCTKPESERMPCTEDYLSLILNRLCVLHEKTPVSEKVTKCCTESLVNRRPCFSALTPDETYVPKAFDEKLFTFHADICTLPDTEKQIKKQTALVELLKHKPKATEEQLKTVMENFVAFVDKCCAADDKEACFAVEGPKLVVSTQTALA
Procedure: Binding studies of IC7-1 derivatives to albumin were conducted as reported previously (Beckford G et al. The solvatochromic effects of side chain substitution on the binding interaction of novel tricarbocyanine dyes with human serum albumin. Talanta 2012;92: 45-52). Briefly, IC7-1 derivatives (1 µM final concentration) were incubated with BSA (0, 0.4, 0.6, 0.8, and 1.0 µM) for 30 min to equilibrate. The fluorescence intensity was measured following the excitation at 823 nm and the emission from 840 to 900 nm. The interaction between dye D and albumin A can be expressed by Eq. 1:
The association constant for the dye-albumin complex formation can be expressed by Eq. 2:
Then, the association constant Ka of the dye-albumin complex was calculated from the data for the fluorimetric titration of the dye with albumin using Eq. 3:
1/ΔF = 1/k[D] + (1/(k[D]Ka))·(1/[A]) (3)
where k is a constant depending on the instrumentation and quantum efficiency of the process.
Therefore, a plot of the reciprocal of ΔF versus the reciprocal of albumin concentration gives a straight line. The association constant was calculated by dividing the intercept by the slope of the line.

[2] = Photophysical properties (fluorescence spectroscopy, quantum yield); assay type: physicochemical
Procedure: IC7-1 derivatives were dissolved in chloroform or 5% FBS to give a concentration of 1 μmol/L for fluorescence spectroscopy analysis. Excitation spectra were measured following the emission at 850 nm, and emission spectra were measured following excitation at 823 nm. Quantum yields were determined using a Fluorolog-3 spectrofluorometer equipped with an integrating sphere.

HeLa cells [3] = experiment: Cellular uptake study with uncoupler CCCP; assay type: cell-based, human; conditions: dye 1 μmol/L, 60 min, CCCP 0-25 μmol/L
Procedure: A cellular uptake study was conducted as reported previously. Briefly, the buffer solution (pH 7.4) for the cellular uptake study was composed of NaCl ([…]), KCl (5.4 mmol/L), CaCl2 (1.2 mmol/L), MgSO4 (0.8 mmol/L), NaH2PO4 (0.8 mmol/L), dextrose (5.6 mmol/L), and 4-(2-hydroxyethyl)-1-piperazineethanesulfonic acid) (5 mmol/L). HeLa cells (1 × 10^6 cells/mL buffer solution) were incubated with carbonyl […] m-chlorophenylhydrazone (CCCP; 0, 0.1, 0.25, 0.5, 0.75, 1, 2.5, 5, 10, and 25 μmol/L) for 5 min at 37°C in 1.5 mL microtubes, followed by the addition of the IC7-1 derivative (1 μmol/L final concentration). After a 60-min incubation with the IC7-1 derivative, the cells were washed twice and resuspended with buffer solution. The fluorescence intensity was measured following the excitation at 823 nm and the emission from 840 to 900 nm, and the normalized intensity (%) was calculated as a percentage of fluorescence intensity obtained with CCCP untreated (0 μmol/L) cells.
The buffer solution (pH 7.4) for the cellular uptake study was composed of NaCl (145 mM), KCl (5.4 mM), CaCl2 (1.2 mM), MgSO4 (0.8 mM), NaH2PO4 (0.8 mM), dextrose (5.6 mM), and HEPES (5 mM). The HeLa cells (1 x 10^6 cells / ml buffer solution) were incubated with an uncoupler (CCCP; 0, 0.1, 0.25, 0.5, 0.75, 1, 2.5, 5, 10, and 25 µM) for 5 min at 37 °C in 1.5 mL microtubes, followed by the addition of IR-780 or IC7-1-Bu (1 µM final concentration) After a 60 min incubation with the dyes, the cells were washed twice and resuspended with buffer solution. Fluorescence intensity was measured following the excitation at 763 nm and the emission from 780 to 880 nm for IR-780, and the excitation at 823 nm and the emission from 840 to 900 nm for IC7-1-Bu. The normalized intensity (%) was calculated as a percentage of fluorescence intensity obtained with CCCP untreated (0 µM) cells.

[4] = target: T1, albumin-binding site I (warfarin-binding site) (Bos taurus, UniProt P02769); experiment: Protein-binding assay with competitive inhibitors in 5% FBS; assay type: in vitro ADME, bovine; conditions: 5% FBS, inhibitor 189 μmol/L, dye 1 μmol/L
T1 construct: incubated for 30 min in PBS (pH 7.4) containing 5% DMSO and 5% FBS; from tissue; host or cells: fetal bovine serum (5% in PBS)
T1 sequence (P02769 25-607): as above
Procedure: A protein-binding assay was conducted as reported previously. Briefly, warfarin, ibuprofen, digoxin, and quinidine were used as competitive inhibitors of albumin-binding sites I, II, III, and […], respectively. The inhibitors (0 and 189 μmol/L) were incubated for 30 min in PBS (pH 7.4) containing 5% DMSO and 5% FBS at room temperature. Immediately after the addition of the IC7-1 derivative (1 μmol/L final concentration), the fluorescence intensity was measured following the excitation at 823 nm and the emission from 840 to 900 nm. The normalized intensity (%) was calculated as a percentage of fluorescence intensity obtained from an inhibitor untreated sample.

SMILES	Kd (BSA) [nM]	Φ, quantum yield ([2]; 5% FBS)	ε, extinction coefficient ([2]; 5% FBS) [mol/L/cm]	emmax, maximum emission wavelength ([2]; 5% FBS, 1 μmol/L) [nm]	exmax, maximum excitation wavelength ([2]; 5% FBS, 1 μmol/L) [nm]	Φ, quantum yield ([2]; CHCl3)	ε, extinction coefficient ([2]; CHCl3) [mol/L/cm]	emmax, maximum emission wavelength ([2]; CHCl3, 1 μmol/L) [nm]	exmax, maximum excitation wavelength ([2]; CHCl3, 1 μmol/L) [nm]	Normalized fluorescence intensity with warfarin (albumin site I inhibitor) [4]	Tumor fluorescence intensity group from ROI analysis (HeLa cell xenograft)	Tumor depiction in fluorescence images (HeLa cell xenograft; 10 nmol i.v., 24, 48 and 72 h)	Liver accumulation and excretion (HeLa cell xenograft)	Subcellular localization of NIR fluorescence (HeLa cells [1])	Fluorescence intensity at the tumor region (HeLa cell xenograft; 10 nmol i.v., 24, 48 and 72 h)	Normalized cellular fluorescence intensity under CCCP treatment (HeLa cells [3])
CCCCCCN1/C(=C/C=C2\CCCC(/C=C/C3=[N+](CCCCCC)c4ccc5ccccc5c4C3(C)C)=C2Cl)C(C)(C)c2c1ccc1ccccc21 [IC7-1-He, 3-Hexyl-2-(2-{3-[2-(3-hexyl-1,1-dimethyl-1,3-dihydro-benz[e]indol-2-ylidene)-ethylidene]-2-chloro-cyclohex-1-enyl}-vinyl)-1,1-dimethyl-1H-benz[e]indolium]	833	0.03	60000	841	823	0.06	330000	845	823		negligible intensity group	negligible signals from the whole body		weak or negligible fluorescence in the NIR region	weak at all time points	reduced cellular fluorescence from treatment with a low CCCP concentration
CCCCCN1/C(=C/C=C2\CCCC(/C=C/C3=[N+](CCCCC)c4ccc5ccccc5c4C3(C)C)=C2Cl)C(C)(C)c2c1ccc1ccccc21 [IC7-1-Pe, 3-Pentyl-2-(2-{3-[2-(3-pentyl-1,1-dimethyl-1,3-dihydro-benz[e]indol-2-ylidene)-ethylidene]-2-chloro-cyclohex-1-enyl}-vinyl)-1,1-dimethyl-1H-benz[e]indolium]	625	0.03	90000	847	823	0.06	330000	845	823	specifically bound to albumin	mild intensity group	Tumors were clearly depicted		weak or negligible fluorescence in the NIR region		reduced cellular fluorescence from treatment with a low CCCP concentration
CCCN1/C(=C/C=C2\CCCC(/C=C/C3=[N+](CCC)c4ccccc4C3(C)C)=C2Cl)C(C)(C)c2ccccc21.[I-] [IR-780, reference compound]																almost negligible effect of CCCP

Continued, in another order:

Kd (BSA) [nM]	Φ, quantum yield ([2]; 5% FBS)	ε, extinction coefficient ([2]; 5% FBS) [mol/L/cm]	emmax, maximum emission wavelength ([2]; 5% FBS, 1 μmol/L) [nm]	exmax, maximum excitation wavelength ([2]; 5% FBS, 1 μmol/L) [nm]	Φ, quantum yield ([2]; CHCl3)	ε, extinction coefficient ([2]; CHCl3) [mol/L/cm]	emmax, maximum emission wavelength ([2]; CHCl3, 1 μmol/L) [nm]	exmax, maximum excitation wavelength ([2]; CHCl3, 1 μmol/L) [nm]	Normalized fluorescence intensity with warfarin (albumin site I inhibitor) [4]	SMILES	Tumor fluorescence intensity group from ROI analysis (HeLa cell xenograft)	Tumor depiction in fluorescence images (HeLa cell xenograft; 10 nmol i.v., 24, 48 and 72 h)	Liver accumulation and excretion (HeLa cell xenograft)	Subcellular localization of NIR fluorescence (HeLa cells [1])	Fluorescence intensity at the tumor region (HeLa cell xenograft; 10 nmol i.v., 24, 48 and 72 h)	Normalized cellular fluorescence intensity under CCCP treatment (HeLa cells [3])
556	0.04	130000	847	823	0.06	330000	842	823		CCN1/C(=C/C=C2\CCCC(/C=C/C3=[N+](CC)c4ccc5ccccc5c4C3(C)C)=C2Cl)C(C)(C)c2c1ccc1ccccc21 [IC7-1-Et, 3-Ethyl-2-(2-{3-[2-(3-ethyl-1,1-dimethyl-1,3-dihydro-benz[e]indol-2-ylidene)-ethylidene]-2-chloro-cyclohex-1-enyl}-vinyl)-1,1-dimethyl-1H-benz[e]indolium]	negligible intensity group	negligible signals from the whole body	accumulated in the liver, and were quickly excreted	colocalized fluorescence with NAO		
769	0.04	120000	846	823	0.07	330000	841	823		CN1/C(=C/C=C2\CCCC(/C=C/C3=[N+](C)c4ccc5ccccc5c4C3(C)C)=C2Cl)C(C)(C)c2c1ccc1ccccc21 [IC7-1-Me, 3-Methyl-2-(2-{3-[2-(3-methyl-1,1-dimethyl-1,3-dihydro-benz[e]indol-2-ylidene)-ethylidene]-2-chloro-cyclohex-1-enyl}-vinyl)-1,1-dimethyl-1H-benz[e]indolium]	negligible intensity group	negligible signals from the whole body	accumulated in the liver, and were quickly excreted	colocalized fluorescence with NAO		
417	0.05	130000	843	823	0.07	330000	845	823	specifically bound to albumin	CCCN1/C(=C/C=C2\CCCC(/C=C/C3=[N+](CCC)c4ccc5ccccc5c4C3(C)C)=C2Cl)C(C)(C)c2c1ccc1ccccc21 [IC7-1-Pr, 3-Propyl-2-(2-{3-[2-(3-propyl-1,1-dimethyl-1,3-dihydro-benz[e]indol-2-ylidene)-ethylidene]-2-chloro-cyclohex-1-enyl}-vinyl)-1,1-dimethyl-1H-benz[e]indolium]	mild intensity group	Tumors were clearly depicted		colocalized fluorescence with NAO		reduced cellular fluorescence from treatment with a low CCCP concentration
